Reference: US20150266864A1, “HETEROAROMATIC COMPOUNDS, METHOD FOR PREPARING THE COMPOUNDS, PHARMACEUTICAL COMPOSITIONS, USES AND METHOD FOR TREATING ACUTE AND CHRONIC PAIN” (CRISTÁLIA PRODUTOS QUÍMICOS FARMACÊUTICOS LTDA, priority 2012, published 2015)

Assays:
Swiss mice [1] = test: Hot plate model, assay for acute pain; type: in vivo; conditions: ip, 32.25 μmol/kg, plate 52° C., compared to morphine sulfate at the same dose
Text: The antinociceptive activity (AA) of the present invention selected compounds (C3, C9, C11, C12, C13, C15 and C17) was investigated in hot plate model [Hot Plate Model LE7406, Scientific Inc.] described by Kuraishi et al. [Kuraishi, Y., Harada, Y., Aratani, S., Satoh, M., Takagi, H. Brain Research 1983.273, 245-2523]. This method is valid to evaluate the analgesic activity of substances acting on the central nervous system. Swiss mice weighing 20-25 g were placed on a metal plate heated up to 52° C. The animals were withdrawn from the hot plate at the time they lead their forepaws toward the mouth to lick, being this an indicative of pain second Le Bars et al. [Le Bars, D., Gozariu, M., Cadden, S. W. Animal models of nociception. Pharmacol. Rev. 2001, 53 (4), 597-652]. In this way, it was analyzed how long the animal, treated or not (control) with the analgesic substance, remained on the plate at 52° C.; the longest residence time of an animal on the plate was 35 seconds. This time limit (or cut off) (35 s) was determined by the average of three measurements of latency control values, obtained for each animal multiplied by three, to prevent any kind of tissue injury on the footpad of animals's paw due to long permanence on the heated surface. The protocol consisted in the intraperitoneal (ip) injection of the selected compounds of the present invention at a dose of 32.25 μmol/kg. The antinociceptive activity was evaluated at intervals of 10 minutes until effect completely disappear and, compared to morphine sulfate ([…]) at the same dose of 32.25 μmoles/kg (12.2 mg/kg). The investigated parameter is the latency of reflex to paw withdrawal in response to thermal stimulus. The results were expressed as percentage of AA, which was calculated according to Equation 1 for each experiment.

Swiss mice [2] = test: Hot plate model, assay for acute pain; type: in vivo; conditions: ip, 32.25 μmol/kg
rats subjected to SNL [3] = test: Spinal nerve ligation (SNL) L5 model, thermal hyperalgesia; type: in vivo, rat
rats subjected to SNL [4] = test: Spinal nerve ligation (SNL) L5 model, mechanical allodynia (digital Von Frey); type: in vivo, rat; conditions: after the first day of treatment, p<0.05

Compound	antinociceptive activity (AA), hot plate (Swiss mice [1])	side effects compared to morphine (Swiss mice [2])	paw withdrawal latency, thermal hyperalgesia (rats subjected to SNL [3]; oral 30 mg/kg, after 7 days of treatment)	paw withdrawal latency, thermal hyperalgesia (rats subjected to SNL [3]; oral 100 mg/kg, after 1 day of treatment)	reversion of the signs of mechanical allodynia (rats subjected to SNL [4]; oral 30 mg/kg)	reversion of the signs of mechanical allodynia (rats subjected to SNL [4]; oral 100 mg/kg)	melting point
CCOC(=O)C1(c2ccccc2)CCN(CCc2conc2-c2ccc(F)cc2)CC1.Cl [C17, Ethyl 1-{2-[3-(4-fluorophenyl)-1,2-oxazol-4-yl]ethyl}-4-phenylpiperidine-4-carboxylate hydrochloride]	exhibit antinociceptive activity of intensity and kinetics similar to morphine sulfate	no side effects of conventional morphine	–	–	–	–	–
CN1CCN(CCc2c[nH]nc2-c2ccc(F)cc2)CC1.Cl.Cl.Cl.O.O [C11, 1-{2-[3-(4-fluorophenyl)-1H-pyrazol-4-yl]ethyl}-4-methylpiperazine trihydrochloride dihydrate]	exhibit antinociceptive activity of intensity and kinetics similar to morphine sulfate	no side effects of conventional morphine	–	–	–	–	–
Cl.Cl.Fc1ccc(-c2n[nH]cc2CCN2CCOCC2)cc1.O [C9, 4-{2-[3-(4-fluorophenyl)-1H-pyrazol-4-yl]ethyl}morpholine dihydrochloride monohydrate]	exhibit antinociceptive activity of intensity and kinetics similar to morphine sulfate	no side effects of conventional morphine	–	–	–	–	–
Cl.Cl.Fc1ccc(-c2n[nH]cc2CCN2CCCCC2)cc1.O [C3, 1-{2-[3-(4-fluorophenyl)-1H-pyrazol-4-yl]ethyl}piperidine dihydrochloride monohydrate]	exhibit antinociceptive activity of intensity and kinetics similar to morphine sulfate	no side effects of conventional morphine	significantly increased the paw withdrawal latency	significantly increased the paw withdrawal latency	reversion of the signs of mechanical allodynia	reversion of the signs of mechanical allodynia	–
Cl.OC1(c2ccc(Cl)cc2)CCN(CCc2conc2-c2ccc(F)cc2)CC1 [C15, 4-(4-chlorophenyl)-1-{2-[3-(4-fluorophenyl)-1,2-oxazol-4-yl]ethyl}piperidin-4-ol hydrochloride]	exhibit antinociceptive activity of intensity and kinetics similar to morphine sulfate	no side effects of conventional morphine	–	–	–	–	222 to 226 °C (dec.)
